Experimental data reported in US20130085133A1, “ANTI-VIRAL TREATMENT AND ASSAY TO SCREENFOR ANTI-VIRAL AGENT” (Sourthern Research Institute Office of Commercialization …, priority 2010, published 2013).
pEC50: −log10 of the molar value.

Tests used:
RSV, Long strain = assay: virus titer Reduction (VTR) assay, progeny virus TCID50 in HEp-2 cells; format: cell-based, respiratory syncytial virus (RSV); details: human respiratory syncytial virus, 48 h; for log reduction at 3 µg/mL: 3 ug/ml compound, read-out: TCID-50 Reduction @ 3 ug/ml; for log reduction at 6 µg/mL: 6 ug/ml compound, read-out: TCID-50 Reduction 6 @ ug/ml; for log reduction at 12 µg/mL: 12 ug/ml compound, read-out: TCID-50 Reduction 12 @ ug/ml; for log reduction at 25 µg/mL: 25 ug/ml compound, read-out: TCID-50 Reduction 25 @ ug/ml; for log reduction at 5 µg/mL: 5 ug/ml compound, read-out: TCID-50 Reduction @ 5 ug/ml; for log reduction at 50 µg/mL: 50 ug/ml compound, read-out: TCID-50 Reduction @ 50 ug/ml
Protocol: Four concentrations of each compound were evaluated (Table 3). Briefly, the four concentrations of test compounds, HEp-2 cells (8×10^3 per well) and RSV, Long strain (MOI=0.9) were plated in 96 well microtiter plates. The plates were incubated for 48 hours. Fifteen (15) μl of 10-fold serial dilution of progeny virus containing medium from respective samples (test compound treated or untreated) was transferred to infect fresh HEp-2 cells (2×10^3 cells per well) in a 384 well format. Plates were incubated for an additional 6 days and luminescence was measured using Cell Titer-Glo reagent (Promega Inc.) to determine cell viability. […] A well showing lesser than 50% cell viability was regarded as positive for virus infection. Four replicates for each virus dilution were analyzed and the number of virus positive wells (out of 4) was plotted versus the dilution. TCID50 was calculated to be the dilution that produced two positive wells out of four using ActivityBase software (IDBS, Inc, Guilford, UK).

[1] = cytotoxicity assay (percent viability of HEp-2 cells, Cell Titer-Glo); details: human, HEp-2 cells
[2] = system: respiratory syncytial virus (RSV) strain Long; assay: microbe, parasite or virus in culture; details: human respiratory syncytial virus, HEp-2, 144 h

SMILES | log reduction at 3 µg/mL (RSV, Long strain) | log reduction at 6 µg/mL (RSV, Long strain) | log reduction at 12 µg/mL (RSV, Long strain) | log reduction at 25 µg/mL (RSV, Long strain) | CC50 at 6 days [1] | EC50 [2] | log reduction at 5 µg/mL (RSV, Long strain) | log reduction at 50 µg/mL (RSV, Long strain) | pEC50 [2]
O=C(Nc1ccc(Nc2ccccc2)cc1)c1ccccc1Cl [AB00280499] | 2.55 | 2.38 | 3.69 | 2.96 | > 25 µg/mL | 6.6 µg/mL |  |  | 
COCc1cc(C)nc(SCC(=O)Nc2ccccc2N2CCOCC2)c1C#N [AB00345103] | 1 | 1.31 | 3.2 | 2.86 | > 25 µg/mL | 2.18 µg/mL |  |  | 
CCCn1c(COc2ccccc2OC)nc2ccccc21 [AB00296415] | 1.74 |  | 2.59 | 5.9 | > 25 µg/mL | 4.88 µg/mL | 2.48 |  | 
CSc1ccccc1C(=O)Nc1ccc(S(=O)(=O)Nc2cccc(Cl)c2Cl)cc1 [AB00370446] | 1 | 1.32 | 3.21 | 6.57 | > 25 µg/mL | 4.37 µg/mL |  |  | 
CCCSC1=C(C#N)C(c2ccco2)C(C(=O)Nc2ccccc2)=C(C)N1 (centres unmarked) [AB00276073] | 1 | 0.63 | 1.39 | 3.57 | > 25 µg/mL | 5.12 µg/mL |  |  | 
CC(=O)Nc1nc(N)nc2ccc(CNc3ccc(C(=O)N[C@H](CCC(=O)O)C(=O)O)cc3)nc12 [SRI-10531] |  |  | 0.97 | -0.02 | > 50 µM |  | 0.16 | 0.28 | 5.04
Oc1ccc(Nc2nc(-c3ccc(O)cc3)cs2)cc1 [AB00355020] | 1 | 1.01 | 2.2 | 2.55 | > 25 µg/mL | 2.77 µg/mL |  |  | 
CCOC(=O)C1=C(C)NC(C)=C(C(=O)OCC)C1c1ccc(C#N)cc1 [AB00370331] | -0.15 | 1.39 | 1.7 | 2.89 | > 25 µg/mL | 4.2 µg/mL |  |  | 
CC1(C)O[C@@H]2[C@H](O1)[C@@H](CO)O[C@H]2n1ncc(=O)[nH]c1=O [AB00174524] |  |  | 5.98 | 5.56 | > 50 µM |  | 4.58 | 5.87 | 5.49
COC(=O)C1=C(C)N(Cc2ccccc2)C(=O)NC1c1ccc(OC)c(OC)c1 (centres unmarked) [AB00318114] | 2.42 |  | 5.56 | 5.9 | > 25 µg/mL | 3.37 µg/mL | 4.69 |  | 
O=C1c2ccccc2C(=O)N1CCCCN(C(=O)c1ccco1)c1ccc(Cl)cc1 [AB00302018] | 1.66 | 2.64 | 2.68 | 3.07 | > 25 µg/mL | 3.4 µg/mL |  |  | 
O=c1cnn([C@@H]2O[C@H](CO)[C@@H](O)[C@H]2O)c(=O)[nH]1 [SRI-7958] |  |  | 5.98 | 5.56 | > 50 µM |  | 3.58 | 5.87 | 5.62
Cc1ccc(S(=O)(=O)Nc2ccc(NC(=O)c3c(F)c(F)c(F)c(F)c3F)cc2)cc1 [AB00314111] | 1 | 1.01 | 1.41 | 3.05 | > 25 µg/mL | 6.97 µg/mL |  |  | 
CCc1ccc(Nc2nnc(SCC(=O)Nc3cc(OC)c([N+](=O)[O-])cc3C)s2)cc1 [AB00728303] |  |  |  |  | > 50 µM |  |  |  | 4.55
O=C(Nc1cccc(C(F)(F)F)c1)c1ccccc1Cl [AB00276634] |  |  |  |  | > 25 µg/mL | 15.8 µg/mL |  |  | 
COC(=O)c1c(-c2ccc(C)cc2)csc1NC(=O)c1ccccc1Br [AB00310224] |  |  |  |  | > 25 µg/mL | 24.5 µg/mL |  |  | 
CCOc1ccccc1/C=C(\C#N)c1nc2sc3c(c2c(=O)[nH]1)CCCC3 [AB00726710] |  |  |  |  | > 50 µM |  |  |  | 4.51
CCOC(=O)C1=C(c2ccccc2)NC(=S)NC1c1ccccc1OCC(=O)Nc1ccccc1 (centres unmarked) [AB00355044] |  |  |  |  | > 25 µg/mL | 6.39 µg/mL |  |  | 
O=C(NC1=NCCS1)c1cc2c(s1)CCCCCC2 [AB00367559] |  |  |  |  | > 25 µg/mL | 19.6 µg/mL |  |  | 
Cc1ccc2nc(SCCC#N)nc(C)c2c1 [AB00284847] |  |  |  |  | > 25 µg/mL | 22.5 µg/mL |  |  | 
CCOc1ccc(Nc2nc3cc(S(=O)(=O)N(CC)CC)ccc3o2)cc1 [AB00536652] |  |  |  |  | > 50 µM |  |  |  | 4.41
O=Cc1cc(Br)c(Sc2ncccn2)o1 [AB00326733] |  |  |  |  | > 25 µg/mL | 18.8 µg/mL |  |  | 
O=C(c1ccccc1C(=O)N1CCc2ccccc2C1)N1CCc2ccccc2C1 [AB00310729] |  |  |  |  | > 25 µg/mL | 14.1 µg/mL |  |  | 
O=C(Nc1ccc2c(c1)ncn2C1CCCCC1)c1cccs1 [AB00369934] |  |  |  |  | > 25 µg/mL | 13.6 µg/mL |  |  | 
O=C(CCN1C(=O)c2cccc3cccc(c23)C1=O)N1CCc2ccccc2C1 [AB00315918] |  |  |  |  | > 25 µg/mL | 15.4 µg/mL |  |  | 
Cc1ccc2c(Cn3cnc4scc(-c5ccc(F)cc5)c4c3=O)cc(=O)oc2c1 [AB00796970] |  |  |  |  | > 50 µM |  |  |  | 4.97
